Tests used:
[1] = tested on: hair and nail growth; assay: Hair density, anagen ratio, telogen ratio, nail growth and molecular analysis in rats (Example 4); type: in vivo, Sprague-Dawley rats
Description: Twenty-eight female Sprague-Dawley rats (8 weeks old) were randomized into one of the following groups: (i) group (control), shaved; (ii) group (ASI), shaved+ASI (4.14 mg/rat/day); (iii) group (ASI+MgB I), shaved+ASI (4.14 mg/rat/day)+MgB (48.7 μg/rat/day); and (iv) group (ASI+MgB II), shaved+ASI (4.14 mg/rat/day)+MgB (325 μg/rat/day). On day 42, compared with the control group, while hair density (p<0.05, p<0.01, and p<0.0001, respectively) and anagen ratio (p<0.01, p<0.01, and p<0.001) increased in the ASI, ASI+MgB I, and ASI+MgB II groups, telogen ratio decreased (p<0.01, p<0.01, and p<0.001, respectively). In the molecular analysis, VEGF, HGF, and KGF-2 increased in the ASI (p<0.01, p<0.01, and p<0.05, respectively), ASI+MgB I (p<0.0001 for all), and ASI+MgB II (p<0.0001 for all) groups when compared to the control group. […] SIRT-1 and β-catenin increased in the ASI (p<0.05 and p<0.01), ASI+MgB I (p<0.001 for both), and ASI+MgB II (p<0.0001 for both) groups. Wnt-1 increased in the ASI+MgB I (p<0.001) and ASI+MgB II (p<0.0001) groups.

[2] = Water solubility; type: physicochemical; conditions: greater than biotin
[3] = preclinical models; compared to D-biotin; cited from earlier work
[4] = day 42, compared with the control group

Substance	anagen ratio [1, 4]	hair density [1, 4]	telogen ratio [1, 4]	SIRT-1 and β-catenin ([1]; molecular analysis)	VEGF, HGF, and KGF-2 ([1]; molecular analysis, compared to the control group)	nail growth ([1]; rats)	water solubility relative to biotin [2]	absorption and uptake in tissue [3]
inositol-stabilized arginine silicate complex [ASI]	increased	increased	decreased	increased	increased	did not affect nail growth		
magnesium biotinate							about 40 times	superior absorption and greater uptake in tissue

Source: patent US20260130936A1, “COMPOSITIONS COMPRISING AN ACTIVE INGREDIENT MIXTURE COMPRISING SILICON AND BIOTIN AND METHODS OF USE” (Nutrition21, LLC, priority 2022, published 2026)
